Assay results: US11945806B2, “Stabilization of amyloidogenic immunoglobulin light chains” (The Scripps Research Institute, priority 2019, dated 2024)

What follows are compounds tested against WIL-FL (Homo sapiens, UniProt P01721) (assay: Unlabeled LC Protease Sensitivity Assay (proteinase K)). Conditions: small molecule 10 μM, WIL-FL 5 μM, proteinase K 50 nM, 2 hours at 37° C.
Assay type: biochemical
Procedure, shortened: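 Compound at 10 μM (1% DMSO) is mixed with 5 μM WIL-FL and 50 nM proteinase K in PBS pH 7.4/0.02% Pluronic F-127, 37 °C, 2 h, then quenched with PMSF. Remaining protein measured by SEC-UPLC peak area at 280 nm and expressed as fold protection relative to vehicle and no-protease controls.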

| SMILES | Protection (fold protection of LC from protease) |
| --- | --- |
| CCN(CC)c1ccc2c(C)c(CCNC(=O)NCc3cccc(S(N)(=O)=O)c3)c(=O)oc2c1 [Compound 299, 3-((3-(2-(7-(diethylamino)-4-methyl-2-oxo-2H-chromen-3-yl)ethyl)ureido)methyl)benzenesulfonamide] | B (3 ≤ B < 0.6) |
| CCN(CC)c1ccc2c(CCCOC(=O)NCc3ccccc3)cc(=O)oc2c1 [Compound 300, 3-(7-(diethylamino)-2-oxo-2H-chromen-4-yl)propyl benzylcarbamate] | A (A < 0.3)) |
| CCN(CC)c1ccc2c(CCCOC(=O)NCc3ccncc3)cc(=O)oc2c1 [Compound 301, 3-(7-(diethylamino)-2-oxo-2H-chromen-4-yl)propyl (pyridin-4-ylmethyl)carbamate] | A (A < 0.3)) |
| CCN(CC)c1ccc2c(CCCOC(=O)NCc3cccc(C(N)=O)c3)cc(=O)oc2c1 [Compound 302, 3-(7-(diethylamino)-2-oxo-2H-chromen-4-yl)propyl (3-carbamoylbenzyl)carbamate] | A (A < 0.3)) |
| CCN(CC)c1ccc2c(CCCOC(=O)NCc3cccc(S(N)(=O)=O)c3)cc(=O)oc2c1 [Compound 303, 3-(7-(diethylamino)-2-oxo-2H-chromen-4-yl)propyl (3-sulfamoylbenzyl)carbamate] | A (A < 0.3)) |
| CCN(CC)c1ccc2c(CCCOC(=O)NCc3cccc(-c4c[nH]cn4)c3)cc(=O)oc2c1 [Compound 304, 3-(7-(diethylamino)-2-oxo-2H-chromen-4-yl)propyl (3-(1H-imidazol-4-yl)benzyl)carbamate] | A (A < 0.3)) |
| CCN(CC)c1ccc2c(CCCOC(=O)NCc3cccc(CCC(=O)O)c3)cc(=O)oc2c1 [Compound 305, 3-(3-((((3-(7-(diethylamino)-2-oxo-2H-chromen-4-yl)propoxy)carbonyl)amino)methyl)phenyl)propanoic acid] | A (A < 0.3)) |
| CCN(CC)c1ccc2c(CCCOC(=O)NCc3cccc(CCC(=O)OC)c3)cc(=O)oc2c1 [Compound 306, Methyl 3-(3-((((3-(7-(diethylamino)-2-oxo-2H-chromen-4yl)propoxy)carbonyl)amino)methyl)phenyl)propanoate] | A (A < 0.3)) |
| CCN(CC)c1ccc2c(C)c(CCNC(=O)NCc3cccc(CCC(=O)O)c3)c(=O)oc2c1 [Compound 307, 3-(3-((3-(2-(7-(diethylamino)-4-methyl-2-oxo-2H-chromen-3-yl)ethyl)ureido)methyl)phenyl)propanoic acid] | B (3 ≤ B < 0.6) |
| CCN(CC)c1ccc2c(C)c(CCNC(=O)NCc3cccc(CCC(=O)OC)c3)c(=O)oc2c1 [Compound 308, Methyl 3-(3-((3-(2-(7-(diethylamino)-4-methyl-2-oxo-2H-chromen-3-yl)ethyl)ureido)methyl)phenyl)propanoate] | B (3 ≤ B < 0.6) |
| CCN(CC)c1ccc2c(C)c(CCOC(=O)NCc3cccc(CCC(=O)O)c3)c(=O)oc2c1 [Compound 309, 3-(3-((((2-(7-(diethylamino)-4-methyl-2-oxo-2H-chromen-3-yl)ethoxy)carbonyl)amino)methyl)phenyl)propanoic acid] | A (A < 0.3)) |
| CCN(CC)c1ccc2c(C)c(CCOC(=O)NCc3cccc(CCC(=O)OC)c3)c(=O)oc2c1 [Compound 310, Methyl 3-(3-((((2-(7-(diethylamino)-4-methyl-2-oxo-2H-chromen-3-yl)ethoxy)carbonyl)amino)methyl)phenyl)propanoate] | A (A < 0.3)) |
| CCN(CC)c1ccc2c(C)c(CCNC(=O)NCc3cccc(OCC(=O)O)c3)c(=O)oc2c1 [Compound 311, 2-(3-((3-(2-(7-(diethylamino)-4-methyl-2-oxo-2H-chromen-3-yl)ethyl)ureido)methyl)phenoxy)acetic acid] | B (3 ≤ B < 0.6) |
